Reference: ChEMBL document CHEMBL1909046, “DrugMatrix in vitro pharmacology data”

Experiments:
[1] = target: Delta-type opioid receptor (Homo sapiens, UniProt P41143); format: cell membranes, HEK293, Membrane; conditions: hek293
Neutrophil elastase = target: T1, Neutrophil elastase (Homo sapiens, UniProt P08246); format: tissue-based;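 also: inhibition of neutrophil elastase enzyme activity, measured with a p-nitroanilide-linked peptide substrate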
T1 sequence (P08246 whole entry): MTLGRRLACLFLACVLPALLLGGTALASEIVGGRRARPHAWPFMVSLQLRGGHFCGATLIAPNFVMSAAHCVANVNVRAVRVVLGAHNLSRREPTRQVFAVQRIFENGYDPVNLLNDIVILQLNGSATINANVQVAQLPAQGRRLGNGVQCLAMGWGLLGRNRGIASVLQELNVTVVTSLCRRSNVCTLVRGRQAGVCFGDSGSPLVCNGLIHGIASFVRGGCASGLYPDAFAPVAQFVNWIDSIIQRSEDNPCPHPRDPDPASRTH

Melanocortin receptor 4 = Melanocortin receptor 4 (Homo sapiens, UniProt P32245); format: cell membranes, Membrane; conditions: hek293
Melanocortin receptor 4, sequence (P32245 whole entry): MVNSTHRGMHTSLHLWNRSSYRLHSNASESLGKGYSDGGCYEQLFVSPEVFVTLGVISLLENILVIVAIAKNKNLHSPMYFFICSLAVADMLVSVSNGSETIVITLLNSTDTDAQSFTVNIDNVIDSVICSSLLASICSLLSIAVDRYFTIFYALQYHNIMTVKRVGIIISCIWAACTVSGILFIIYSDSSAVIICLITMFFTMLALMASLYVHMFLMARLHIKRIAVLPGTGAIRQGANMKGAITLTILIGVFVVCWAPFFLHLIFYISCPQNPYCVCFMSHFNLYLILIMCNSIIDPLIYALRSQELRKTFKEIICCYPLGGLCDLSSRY

Vasopressin V1a receptor = Vasopressin V1a receptor (Homo sapiens, UniProt P37288); format: cell membranes, Membrane; conditions: hek293
Vasopressin V1a receptor, sequence (P37288 whole entry): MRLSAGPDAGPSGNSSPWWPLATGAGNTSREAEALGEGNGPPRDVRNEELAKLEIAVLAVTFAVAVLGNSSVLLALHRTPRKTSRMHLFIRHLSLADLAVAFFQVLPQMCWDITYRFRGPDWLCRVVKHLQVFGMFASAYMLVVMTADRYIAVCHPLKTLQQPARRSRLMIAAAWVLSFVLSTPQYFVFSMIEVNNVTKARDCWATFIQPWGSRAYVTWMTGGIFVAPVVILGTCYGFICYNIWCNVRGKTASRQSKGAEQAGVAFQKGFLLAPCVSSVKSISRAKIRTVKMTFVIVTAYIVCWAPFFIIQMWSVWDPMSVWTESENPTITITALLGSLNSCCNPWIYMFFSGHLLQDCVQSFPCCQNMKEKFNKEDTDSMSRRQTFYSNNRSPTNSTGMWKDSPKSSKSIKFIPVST

[2] = target: T2, Muscarinic acetylcholine receptor M2 (Homo sapiens, UniProt P08172); format: cell membranes, CHO-K1, Membrane; conditions: cho-k1
T2 sequence (P08172 whole entry): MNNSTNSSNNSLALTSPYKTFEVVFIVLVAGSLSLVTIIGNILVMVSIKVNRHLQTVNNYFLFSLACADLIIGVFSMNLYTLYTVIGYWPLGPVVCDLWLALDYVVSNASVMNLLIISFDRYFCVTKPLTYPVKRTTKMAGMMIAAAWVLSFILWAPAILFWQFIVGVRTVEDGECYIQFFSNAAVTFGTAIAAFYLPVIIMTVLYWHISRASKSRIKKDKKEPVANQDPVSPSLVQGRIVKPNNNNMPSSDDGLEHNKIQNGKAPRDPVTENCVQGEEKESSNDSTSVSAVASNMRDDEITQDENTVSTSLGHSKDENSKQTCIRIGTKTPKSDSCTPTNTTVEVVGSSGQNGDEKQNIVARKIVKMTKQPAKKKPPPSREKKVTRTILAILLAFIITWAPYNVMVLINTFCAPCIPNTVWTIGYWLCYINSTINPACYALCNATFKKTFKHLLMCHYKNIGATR

[3] = target: Mitogen-activated protein kinase 14 (Homo sapiens, UniProt Q16539); set-up: species or system Escherichia coli;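 also: inhibition of p38alpha enzyme activity in a biochemical kinase assay, with myelin basic protein serving as substrate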
Mitogen-activated protein kinase 14, sequence (Q16539 whole entry): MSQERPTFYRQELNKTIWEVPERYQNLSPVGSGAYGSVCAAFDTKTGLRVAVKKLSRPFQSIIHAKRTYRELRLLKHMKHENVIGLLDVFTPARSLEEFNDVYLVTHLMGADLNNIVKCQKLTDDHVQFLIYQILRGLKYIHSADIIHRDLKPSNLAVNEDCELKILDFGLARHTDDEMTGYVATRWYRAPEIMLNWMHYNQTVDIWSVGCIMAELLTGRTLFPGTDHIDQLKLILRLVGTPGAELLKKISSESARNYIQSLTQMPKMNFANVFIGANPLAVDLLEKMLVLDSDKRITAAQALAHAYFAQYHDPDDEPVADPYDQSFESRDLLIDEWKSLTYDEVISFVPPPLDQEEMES

[4] = target: 5-hydroxytryptamine receptor 6 (Homo sapiens, UniProt P50406); format: cell membranes, HeLa, Membrane; conditions: hela
5-hydroxytryptamine receptor 6, sequence (P50406 whole entry): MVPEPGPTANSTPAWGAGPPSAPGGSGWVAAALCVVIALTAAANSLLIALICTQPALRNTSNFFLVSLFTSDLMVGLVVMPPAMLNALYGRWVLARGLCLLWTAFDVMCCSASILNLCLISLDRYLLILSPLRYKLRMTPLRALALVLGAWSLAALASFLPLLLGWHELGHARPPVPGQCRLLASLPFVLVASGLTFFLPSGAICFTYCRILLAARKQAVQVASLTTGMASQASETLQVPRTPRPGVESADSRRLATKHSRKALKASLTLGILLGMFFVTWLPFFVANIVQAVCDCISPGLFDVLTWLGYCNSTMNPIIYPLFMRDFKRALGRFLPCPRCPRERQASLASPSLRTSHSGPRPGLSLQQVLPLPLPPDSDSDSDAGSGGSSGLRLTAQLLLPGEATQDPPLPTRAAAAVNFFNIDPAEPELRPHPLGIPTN
Also: in other assays of this panel Not Active means under 50% inhibition at 10 µM.

Delta-type opioid receptor, sequence (P41143 whole entry): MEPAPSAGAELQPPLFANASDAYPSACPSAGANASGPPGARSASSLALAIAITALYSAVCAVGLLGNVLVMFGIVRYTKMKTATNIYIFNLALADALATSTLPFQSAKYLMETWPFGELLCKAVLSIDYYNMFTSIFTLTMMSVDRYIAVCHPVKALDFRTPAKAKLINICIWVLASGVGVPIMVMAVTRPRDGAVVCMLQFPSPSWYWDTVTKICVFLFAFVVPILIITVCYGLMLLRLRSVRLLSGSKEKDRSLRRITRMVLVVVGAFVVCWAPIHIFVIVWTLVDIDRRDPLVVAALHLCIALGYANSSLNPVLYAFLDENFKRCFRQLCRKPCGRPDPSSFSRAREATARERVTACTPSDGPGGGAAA

| Compound | IC50 [1] | IC50 (Neutrophil elastase) | IC50 (Melanocortin receptor 4) | IC50 (Vasopressin V1a receptor) | IC50 [2] | IC50 [3] | IC50 [4] | IC50 ([3]; read-out: IC50) [µM] | Ki [1] | Ki (Neutrophil elastase) | Ki (Melanocortin receptor 4) | Ki (Vasopressin V1a receptor) | Ki [2] | Ki [3] | Ki [4] |
| --- | --- | --- | --- | --- | --- | --- | --- | --- | --- | --- | --- | --- | --- | --- | --- |
| Cc1ccc(Cl)c(Nc2ccccc2C(=O)O)c1Cl [MECLOFENAMIC ACID] | Not Active | Not Active | Not Active | Not Active | Not Active | Not Active | Not Active |  |  |  |  |  |  |  |  |
| CO[C@@]12[C@H](COC(N)=O)C3=C(C(=O)C(C)=C(N)C3=O)N1C[C@@H]1N[C@@H]12 [MITOMYCIN] | Not Active | Not Active | Not Active | Not Active | Not Active | Not Active | Not Active |  |  |  |  |  |  |  |  |
| Cc1[nH]c(=O)c(C#N)cc1-c1ccncc1 [MILRINONE] | Not Active | Not Active | Not Active | Not Active | Not Active | Not Active | Not Active |  |  |  |  |  |  |  |  |
| O=[As][O-].[Na+] [SODIUM ARSENITE] | Not Active | Not Active | Not Active | Not Active | Not Active | Not Active | Not Active |  |  |  |  |  |  |  |  |
| COC(=O)Nc1nc2ccc(C(=O)c3ccccc3)cc2[nH]1 [MEBENDAZOLE] | Not Active | Not Active | Not Active | Not Active | Not Active | Not Active | Not Active |  |  |  |  |  |  |  |  |
| CCOC(=O)C1=C(C)NC(C)=C(C(=O)OCC)C1c1ccccc1/C=C/C(=O)OC(C)(C)C [LACIDIPINE] | Not Active | Not Active | Not Active | Not Active | Not Active | Not Active | Not Active |  |  |  |  |  |  |  |  |
| O=C(OC[C@H]1O[C@@H](OC(=O)c2cc(O)c(O)c(OC(=O)c3cc(O)c(O)c(O)c3)c2)[C@H](OC(=O)c2cc(O)c(O)c(OC(=O)c3cc(O)c(O)c(O)c3)c2)[C@@H](OC(=O)c2cc(O)c(O)c(OC(=O)c3cc(O)c(O)c(O)c3)c2)[C@@H]1OC(=O)c1cc(O)c(O)c(OC(=O)c2cc(O)c(O)c(O)c2)c1)c1cc(O)c(O)c(OC(=O)c2cc(O)c(O)c(O)c2)c1 [TANNIC ACID] | Not Active | Not Active | Not Active | Not Active | Not Active |  | Not Active | 0.375 |  |  |  |  |  |  |  |
| CC#C[C@]1(O)CC[C@H]2[C@@H]3CCC4=CC(=O)CCC4=C3[C@@H](c3ccc(N(C)C)cc3)C[C@@]21C [MIFEPRISTONE] | Not Active | Not Active | Not Active | Not Active | Not Active |  | Not Active | 83.1 |  |  |  |  |  |  |  |
| CC(O)C(=O)O (stereo unspecified) [LACTIC ACID] | Not Active | Not Active | Not Active | Not Active | Not Active | Not Active | Not Active |  |  |  |  |  |  |  |  |
| Cc1ccnc(NS(=O)(=O)c2ccc(N)cc2)n1 [SULFAMERAZINE] | Not Active | Not Active | Not Active | Not Active | Not Active | Not Active | Not Active |  |  |  |  |  |  |  |  |
| CC(C)(C)NC[C@H](O)COc1cccc2c1CCCC2=O [LEVOBUNOLOL] | Not Active | Not Active | Not Active | Not Active | Not Active | Not Active | Not Active |  |  |  |  |  |  |  |  |
| CCOc1cc(N)c(Cl)cc1C(=O)NCC1CN(Cc2ccc(F)cc2)CCO1 (stereo unspecified) [MOSAPRIDE] | Not Active | Not Active | Not Active | Not Active | Not Active | Not Active | Not Active |  |  |  |  |  |  |  |  |
| CC(=O)O[C@]1(C(C)=O)CC[C@H]2[C@@H]3C[C@H](C)C4=CC(=O)CC[C@]4(C)[C@H]3CC[C@@]21C [MEDROXYPROGESTERONE ACETATE] | Not Active | Not Active | Not Active | Not Active | Not Active | Not Active | Not Active |  |  |  |  |  |  |  |  |
| OC[C@@H](O)[C@@H](O)[C@H](O)[C@H](O)CO [MANNITOL] | Not Active | Not Active | Not Active | Not Active | Not Active | Not Active | Not Active |  |  |  |  |  |  |  |  |
| CC(Cl)(Cl)Cl [TRICHLOROETHANE] | Not Active | Not Active | Not Active | Not Active | Not Active | Not Active | Not Active |  |  |  |  |  |  |  |  |
| LEAD(IV) ACETATE | Not Active | Not Active | Not Active | Not Active | Not Active | Not Active | Not Active |  | Not Active | Not Active | Not Active | Not Active | Not Active | Not Active | Not Active |
| O=C(c1ccccc1)c1ccc2n1CCC2C(=O)O (stereo unspecified) [KETOROLAC] | Not Active | Not Active | Not Active | Not Active | Not Active | Not Active | Not Active |  |  |  |  |  |  |  |  |
